According to patent publication US9586986B2, “Substituted 7-deazapurine ribonucleosides for therapeutic uses” (Institute of Organic Chemistry and Biochemistry ASCR, v.v.i., priority 2014, dated 2017):

What was measured:
[1] = tested on: CCRF-CEM; assay: Cytostatic/cytotoxic MTT assay, CCRF-CEM; type: cell-based; conditions: Homo sapiens, 72 h incubation, read-out: MTT, IC50 CCRF-CEM
How it was run: (§1)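 Optical density at 540 nm of SDS-dissolved formazan gives the read-out, with IC50 derived from dose-response curves. Cells (25,000-30,000/well) are treated for 72 h at 37 °C with four-fold compound dilutions, tested in duplicate, then stained with MTT for 1-4 h.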

[2] = tested on: K562-TAX; assay: Cytostatic/cytotoxic MTT assay, K562-TAX; type: cell-based; conditions: Homo sapiens, paclitaxel resistant subline, 72 h, read-out: MTT, IC50 K562-TAX
How it was run: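 Human cancer lines, including daunorubicin-resistant CEM-DNR (mrp-1/mdr-1 overexpressing) and paclitaxel-resistant K562-TAX (mdr-1), seeded 25,000-30,000 cells/well, pre-incubated 24 h, then treated in duplicate with four-fold dilutions for 72 h at 37° C, 5% CO2. MTT read-out at 540 nm; IC50 from dose-response curves.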

[3] = tested on: A549; assay: Cytostatic/cytotoxic MTT assay, A549; type: cell-based; conditions: Homo sapiens, A549; 72 h incubation; read-out: MTT, IC50 A549
How it was run: as §1

[4] = tested on: BJ; assay: Cytostatic/cytotoxic MTT assay, BJ fibroblasts; type: cell-based; conditions: Homo sapiens, non-malignant fibroblasts, 72 h, read-out: MTT, IC50 BJ
How it was run: as §1

[5] = tested on: CCRF-CEM cells; assay: Cell cycle and apoptosis analysis (flow cytometry, propidium iodide); type: cell-based, human; conditions: for G1, % of total cell populations / G2/M, % of total cell populations / S, % of total cell populations / sub-G1 (apoptosis), % of total cell populations: CCRF-CEM cells treated at IC50 for 24 hrs
Experimental: (§2) After the incubation period, cells were then washed with cold 1×PBS and fixed in 70% ethanol added dropwise and stored overnight at −20° C. Afterwards, cells were washed in hypotonic citrate buffer, treated with RNase (50 μg/mL) and stained with propidium iodide. Flow cytometry using a 488 nm single-beam laser (Becton Dickinson) was used for measurement. The data were analyzed according to the program ModFitLT (Verity), and apoptosis was expressed as the percentage of cells with a propidium content lower than that in the G0/G1 population. Half of the sample was used for pH3^ser10 antibody (Sigma) labeling and subsequent flow cytometry analysis of mitotic cells.
(§3) However, the major mechanism of action was inhibition of RNA synthesis (BrU incorporation). […] Cell cycle alterations (G1, S, G2/M) were not observed in treated cells under specified experimental conditions.

[6] = tested on: CCRF-CEM cells; assay: Mitotic cells, pH3Ser10 antibody labeling (flow cytometry); type: cell-based, human; conditions: CCRF-CEM cells treated at IC50 for 24 hrs
Experimental: as §2, §3

[7] = tested on: CCRF-CEM cells; assay: BrdU incorporation analysis (DNA synthesis); type: cell-based, human; conditions: for BrdU+ (DNA synthesis), % of total cell populations: CCRF-CEM cells treated at IC50 for 24 hrs
Experimental: Cells were cultured as for cell cycle analysis. Before harvesting, they were pulse-labelled with 10 M 5-bromo-2′-deoxyuridine (BrdU) for 30 min. The cells were trypsinized, fixed with ice-cold 70% ethanol, incubated on ice for 30 min, washed with PBS, and resuspended in 2 M HCl for 30 min at room temperature to denature their DNA. Following neutralization with 0.1 M Na2B4O7, the cells were washed with PBS containing 0.5% Tween-20 and 1% BSA. They were then stained with primary anti-BrdU antibody (Exbio) for 30 min at room temperature in the dark. Cells were than washed with PBS and stained with secondary anti-mouse-FITC antibody (Sigma). The cells were then washed with PBS, incubated with propidium iodide (0.1 mg/mL) and RNAse A (0.5 mg/mL) for 1 h at room temperature in the dark, and finally analyzed by flow cytometry using a 488 nm single-beam laser (FACSCalibur, Becton Dickinson).
as §3

SMILES | IC50 [1] [nM] | IC50 [2] [nM] | IC50 [3] [nM] | IC50 [4] [nM] | G1, % of total cell populations [5] [%] | G2/M, % of total cell populations [5] [%] | S, % of total cell populations [5] [%] | sub-G1 (apoptosis), % of total cell populations [5] [%] | pH3Ser10+ (mitosis), % of total cell populations [6] [%] | BrdU+ (DNA synthesis), % of total cell populations [7] [%] | melting point [°C] | apoptosis induction in words ([5]; CCRF-CEM, IC50, 24 hours) | DNA synthesis inhibition in words ([7]; CCRF-CEM, IC50, 24 hours)
COc1ncnc2c1c(-c1ccoc1)cn2[C@@H]1O[C@H](CO)[C@@H](O)[C@H]1O [Compound 1b, 5-(Furan-3-yl)-4-methoxy-7-(β-D-ribofuranosyl)-7H-pyrrolo[2,3-d]pyrimidine] | 110 | 2820 | 1160 | 28800 | 43.5 | 12.3 | 44.2 | 8.5 | 1.6 | 44.2 | 190 to 192 |  | 
COc1ncnc2c1c(-c1cccs1)cn2[C@@H]1O[C@H](CO)[C@@H](O)[C@H]1O [Compound 1c, 4-Methoxy-7-(β-D-ribofuranosyl)-5-(thiophen-2-yl)-7H-pyrrolo[2,3-d]pyrimidine] | 90 | 6200 | 4850 | 62800 | 41.5 | 9.8 | 48.7 | 7.5 | 1.1 | 38.6 | 140 to 143 |  | 
COc1ncnc2c1c(-c1ccsc1)cn2[C@@H]1O[C@H](CO)[C@@H](O)[C@H]1O [Compound 1d, 4-Methoxy-7-(β-D-ribofuranosyl)-5-(thiophen-3-yl)-7H-pyrrolo[2,3-d]pyrimidine] | 2570 | 3450 | 5170 | 64300 | 40.8 | 12.7 | 46.5 | 75 | 2.9 | 44.4 | 169 to 171 | major apoptosis | 
CN(C)c1ncnc2c1c(-c1ccco1)cn2[C@@H]1O[C@H](CO)[C@@H](O)[C@H]1O [Compound 4a, 4-Dimethylamino-5-(furan-2-yl)-7-(β-D-ribofuranosyl)-7H-pyrrolo[2,3-d]pyrimidine] | 2910 | 1280 | 4600 | > 100000 | 31 | 15.4 | 53.6 | 10.2 | 1.5 | 50.6 |  |  | 
CN(C)c1ncnc2c1c(-c1ccsc1)cn2[C@@H]1O[C@H](CO)[C@@H](O)[C@H]1O [Compound 4d, 4-Dimethylamino-7-(β-D-ribofuranosyl)-5-(thiophen-3-yl)-7H-pyrrolo[2,3-d]pyrimidine] | 3480 | > 20000 | > 20000 | > 100000 | 41.4 | 11.2 | 47.4 | 6.8 | 0.7 | 36.1 |  |  | barely inhibited
C#Cc1cn([C@@H]2O[C@H](CO)[C@@H](O)[C@H]2O)c2ncnc(N(C)C)c12 [Compound 4g, 4-Dimethylamino-5-ethynyl-7-(β-D-ribofuranosyl)-7H-pyrrolo[2,3-d]pyrimidine] | 90 | 260 | 390 | 410 | 38.5 | 14.7 | 46.8 | 8.9 | 1.3 | 43.4 |  |  | 
CN(C)c1ncnc2c1c(I)cn2[C@@H]1O[C@H](CO)[C@@H](O)[C@H]1O [Compound 4h, 4-Dimethylamino-5-iodo-7-(β-D-ribofuranosyl)-7H-pyrrolo[2,3-d]pyrimidine] | 1590 | 50 | 340 | 45700 | 39.8 | 13.5 | 46.7 | 9.4 | 1.3 | 48.7 | 195 to 197 |  | 
